{"source": "PubChem BioAssay AID504605", "about": "(National Center for Advancing Translational Sciences (NCATS), 2011)", "tested_on": "mouse liver microsomes, LC-MS/MS, half-life", "assay": "Inhibitors of 12-hLO: Mouse Liver Microsome Stability Profiling", "settings": "at 1 µM; hits give high values", "from_the_text": "Assay Provider: Holman, T.R., University of California, Santa Cruz Grant #: MH08128301 Screening Center PI: Austin, C.P. Screening Center: NIH Chemical Genomics Center [NCGC] Human lipoxygenase 12hLO is a member of the closely related lipoxygenase family of enzymes which catalyze the site-specific oxidation of arachidonic acid to various hormone precursor molecules and as such is a candidate for drug development in a variety of disease areas, such as cancer and inflammation. After qHTS, hits were confirmed in follow-up assays, and leads were optimized through SAR. The resulting lead compound was further characterized through a battery ADME-Tox experiments. These assay and this assay describes its mouse liver microsome stability. Mouse liver microsomes are created through broken up endoplasmic reticulum from mouse liver. These liver microsomes contain many drug metabolizing enzymes, such as Cytochome P-450s and flavin-containing monooxygenases. Because metabolism is major way of drug clearance, this is an important result.\n1uM of compound in incubated in mouse liver microsome; the reference compound is ketanserin. Compounds are incubated at 37 degrees C for different time periods: 0, 5, 15, 30, 45, and 60 minutes. Samples are analyzed with LC-MS/MS.", "data": [{"smiles": "CC(=O)NC(c1cccs1)c1cc(Br)c2cccnc2c1O", "note": "(stereo unspecified)", "values": [{"measurement": "half-life", "value": 9, "unit": "min"}]}]}
